Holding throughout (assay type): cell-based
Experiment [1] concerns the target T1, hGIPR (Homo sapiens, UniProt P48546).
T1 sequence (P48546 22-466): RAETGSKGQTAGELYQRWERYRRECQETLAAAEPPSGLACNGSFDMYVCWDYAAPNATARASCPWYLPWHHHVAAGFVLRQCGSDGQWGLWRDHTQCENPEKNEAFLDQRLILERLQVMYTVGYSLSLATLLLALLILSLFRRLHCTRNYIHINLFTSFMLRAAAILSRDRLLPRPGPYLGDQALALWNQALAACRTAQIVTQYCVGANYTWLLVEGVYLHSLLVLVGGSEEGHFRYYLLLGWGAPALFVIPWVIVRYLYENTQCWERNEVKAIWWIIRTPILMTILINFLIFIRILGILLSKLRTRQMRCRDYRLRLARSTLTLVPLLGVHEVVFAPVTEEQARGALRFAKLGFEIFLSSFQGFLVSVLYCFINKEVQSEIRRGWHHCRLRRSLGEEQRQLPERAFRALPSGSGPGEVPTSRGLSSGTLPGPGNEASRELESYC
The experiment can be described thus: Functional cAMP activation in the presence of 0.1% casein (no HSA).

The target in experiment [2] is T1, hGIPR. The experiment can be described thus: Functional cAMP activity in the presence of 1% HSA.
Another experiment deals with human GcgR (Homo sapiens, UniProt P47871). As to the kind of experiment: Functional cAMP activity in the presence of 1% HSA.
human GcgR, sequence (P47871 26-477): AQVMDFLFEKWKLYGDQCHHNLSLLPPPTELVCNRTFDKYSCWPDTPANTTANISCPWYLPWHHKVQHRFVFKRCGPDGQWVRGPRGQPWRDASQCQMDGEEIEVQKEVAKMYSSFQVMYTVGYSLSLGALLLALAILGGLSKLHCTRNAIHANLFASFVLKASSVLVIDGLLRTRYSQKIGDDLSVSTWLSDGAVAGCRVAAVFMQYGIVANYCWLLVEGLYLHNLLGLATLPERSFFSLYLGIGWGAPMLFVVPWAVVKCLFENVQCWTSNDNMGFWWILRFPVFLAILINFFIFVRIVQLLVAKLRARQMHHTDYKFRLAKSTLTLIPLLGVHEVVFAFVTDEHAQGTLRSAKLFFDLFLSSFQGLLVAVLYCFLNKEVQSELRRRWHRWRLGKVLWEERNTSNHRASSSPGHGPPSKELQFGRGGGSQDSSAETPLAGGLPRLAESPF
Experiment [3] deals with T2, hGLP-1R (Homo sapiens, UniProt P43220). The experiment can be described thus: Functional cAMP activity in the presence of 1% HSA.
T2 sequence (P43220 24-463): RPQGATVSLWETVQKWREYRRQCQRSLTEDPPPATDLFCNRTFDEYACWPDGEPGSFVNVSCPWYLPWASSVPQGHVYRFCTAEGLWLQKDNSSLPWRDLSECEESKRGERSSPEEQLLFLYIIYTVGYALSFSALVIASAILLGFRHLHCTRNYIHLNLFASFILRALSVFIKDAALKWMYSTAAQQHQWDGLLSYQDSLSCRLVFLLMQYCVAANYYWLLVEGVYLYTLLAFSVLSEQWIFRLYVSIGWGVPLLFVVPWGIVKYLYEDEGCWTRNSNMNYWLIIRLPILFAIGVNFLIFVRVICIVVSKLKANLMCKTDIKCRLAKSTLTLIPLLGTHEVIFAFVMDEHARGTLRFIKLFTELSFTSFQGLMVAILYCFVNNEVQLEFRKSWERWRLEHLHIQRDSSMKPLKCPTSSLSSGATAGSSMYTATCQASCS
The target of experiment [4] is T2, hGLP-1R. The experiment can be described thus: Functional cAMP activation in the presence of 0.1% casein (no HSA).
The next experiment concerns the target hGcgR (Homo sapiens, UniProt P47871). The experiment is described as above.
The next experiment has as its target human GLP1-R (Homo sapiens, UniProt P43220). As to the kind of experiment: GLP1-R internalization assay in HEK293 cells. Particulars: for Internalization % TOP: normalized to maximum concentration of GLP-1 (100%).
Where [5] appears, read: in the presence of 0.1% casein (no HSA), geometric mean, read-out: Relative cAMP EC50, hGIPR.
The mark [6] stands for this setting: read-out: cAMP Rel EC50, hGLP-1R.
[7] abbreviates: in the presence of 0.1% casein (no HSA), geometric mean, read-out: Relative cAMP EC50, hGLP-1R.
[8] abbreviates: in the presence of 0.1% casein (no HSA), geometric mean, read-out: Relative cAMP EC50, hGcgR.
Where [9] appears, read: HEK293 cells expressing SNAP-GLP-1R, read-out: GLP1R Internalization EC50.

Where two headings read alike, the source gives them in different places. Starred links: 1 amine or outer side, 2 acyl side, 3 side chain; linkers in the order of their positions; H or OH if unused. Non-standard residues stand in square brackets, D forms with d. Groups on a side chain read outwards from the residue. *: point of attachment. C20 diacid = O=C(O)CCCCCCCCCCCCCCCCCCC(=O)*; γGlu = O=C(O)[C@H](CCC(=O)[*:2])N[*:1]; αMeL = CC(C)C[C@](C)(N)C(=O)O; AEEA = NCCOCCOCC(=O)O; Aib = CC(C)(N)C(=O)O
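Throughout, for Relative cAMP EC50, hGIPR: intracellular cAMP rise after 30 min at 37 °C read by HTRF against a standard curve, scaled between buffer alone (0%) and top control ligand concentration (100%), four-parameter fit.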
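Throughout, for Relative cAMP EC50, hGLP-1R: intracellular cAMP rise after 30 min at 37 °C read by HTRF, normalized between buffer only (0%) and maximal control ligand (100%), four-parameter variable-slope fit.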
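Throughout, for Relative cAMP EC50, hGcgR: intracellular cAMP rise after 30 min at 37 °C, read by HTRF against a cAMP standard curve, scaled from buffer only (0%) to maximal control ligand response (100%).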

hGcgR, sequence (P47871 26-477): as the sequence (P47871 26-477) above
human GLP1-R, sequence (P43220 24-463): as the sequence (P43220 24-463) above

The EC50 is the midpoint of the concentration-response curve. As for “H-Y[Aib]QGTFTSDFSK[αMeL]LDKK([AEEA-γGlu-C20 diacid])AQQAFIEYLLA[Aib]GPSSGEPPPSEG-NH2 [Example 19]”, the concentration for a half-maximal effect (EC50) on hGIPR [1] amounted to 0.228 nM; at hGIPR [2], 66.2 nM; on human GcgR it was 1010 nM; at hGLP-1R [3] it was 1310 nM; on hGLP-1R [4] it was 3.96 nM; on hGcgR it was 2.35 nM. On human GLP1-R, the EC50 was 52.4 nM. Besides, at human GLP1-R, the “Internalization % TOP” value was 72.6%.
Regarding “H-Y[Aib]QGTFTSDFSK[αMeL]LDKK([AEEA-γGlu-C20 diacid])AQ[Aib]AFIEWLLEGGPSSGAPPPSEG-NH2 [Example 37]”, the EC50 on hGIPR [1] (setting [5]) was 0.207 nM; on hGIPR [2] (read-out: cAMP Rel EC50, hGIPR), 56.4 nM; on human GcgR (read-out: cAMP Rel EC50, hGcgR), 1870 nM; on hGLP-1R [3] (setting [6]) it was 514 nM; on hGLP-1R [4] (setting [7]), 1.66 nM; on hGcgR (setting [8]), 6.83 nM. On human GLP1-R (setting [9]), the EC50 was found to be 51.6 nM. Further, the “Internalization % TOP” value on human GLP1-R stood at 68.3%.
“H-Y[Aib]QGTFTSDFSK[αMeL]LDKK([AEEA-γGlu-C20 diacid])AQ[Aib]AFIEYLLAGGPSSGAPPPGGE-NH2 [Example 15]”: the concentration giving a half-maximal response (EC50) on hGIPR [1] (setting [5]) was found to be 0.201 nM; at hGIPR [2] (read-out: cAMP Rel EC50, hGIPR), 36.3 nM; on human GcgR (read-out: cAMP Rel EC50, hGcgR), 1980 nM; at hGLP-1R [3] (setting [6]) it was 276 nM; at hGLP-1R [4] (setting [7]), 1.77 nM; at hGcgR (setting [8]), 11.1 nM. On human GLP1-R (setting [9]), the 50% effective concentration (EC50) came out at 79 nM. Further, on human GLP1-R, the “Internalization % TOP” value is 74.9%.
“H-Y[Aib]QGTFTSDFSK[αMeL]LDKK([AEEA-γGlu-C20 diacid])AQ[Aib]AFIEYLLAGGPSSGAPPPGGS-NH2 [Example 16]”: the EC50 at hGIPR [1] (setting [5]) was 0.217 nM; on hGIPR [2] (read-out: cAMP Rel EC50, hGIPR), 35.9 nM; at human GcgR (read-out: cAMP Rel EC50, hGcgR), 1660 nM; at hGLP-1R [3] (setting [6]), 281 nM; at hGLP-1R [4] (setting [7]), 1.54 nM; on hGcgR (setting [8]), 8.84 nM. In addition, the EC50 at human GLP1-R (setting [9]) was 37.8 nM. Besides, on human GLP1-R, the “Internalization % TOP” value came to 74.6%.
As to “H-Y[Aib]QGTFTSDFSK[αMeL]LDKK([AEEA-γGlu-C20 diacid])AQ[Aib]AFIEYLLAGGPSSGAPPPSEG-NH2 [Example 10]”, the 50% effective concentration (EC50) on hGIPR [1] (setting [5]) worked out at 0.226 nM; at hGIPR [2] (read-out: cAMP Rel EC50, hGIPR) it was 43 nM; at human GcgR (read-out: cAMP Rel EC50, hGcgR), 1640 nM; on hGLP-1R [3] (setting [6]), 375 nM; on hGLP-1R [4] (setting [7]), 1.85 nM; on hGcgR (setting [8]), 7.62 nM. Besides, on human GLP1-R (setting [9]), the EC50 was found to be 79.2 nM. Moreover, on human GLP1-R, the “Internalization % TOP” value was 71.9%.
Consider “H-Y[Aib]QGTFTSDFSK[αMeL]LDKK([AEEA-γGlu-C20 diacid])AQ[Aib]AFIEYLLAGGPSSGAPPPSGE-NH2 [Example 11]”, for which the concentration for a half-maximal effect (EC50) at hGIPR [1] (setting [5]) turned out to be 0.233 nM; at hGIPR [2] (read-out: cAMP Rel EC50, hGIPR), 40.8 nM; at human GcgR (read-out: cAMP Rel EC50, hGcgR), 1700 nM; at hGLP-1R [3] (setting [6]), 337 nM; at hGLP-1R [4] (setting [7]), 2.07 nM; at hGcgR (setting [8]) it was 12.5 nM. Besides, the EC50 on human GLP1-R (setting [9]) was 75.1 nM. At human GLP1-R, the “Internalization % TOP” value is 73.8%.
“H-Y[Aib]QGTFTSDFSK[αMeL]LDKK([AEEA-γGlu-C20 diacid])AQ[Aib]AFIEYLLAGGPSSGAPPPSGG-NH2 [Example 12]”: the half-maximal effective concentration (EC50) at hGIPR [1] (setting [5]) worked out at 0.17 nM; on hGIPR [2] (read-out: cAMP Rel EC50, hGIPR) it was 30.2 nM; on human GcgR (read-out: cAMP Rel EC50, hGcgR) it was 1490 nM; at hGLP-1R [3] (setting [6]), 216 nM; at hGLP-1R [4] (setting [7]) it was 1.46 nM; at hGcgR (setting [8]), 12.2 nM. For the same substance, the 50% effective concentration (EC50) at human GLP1-R (setting [9]) turned out to be 48.5 nM. For the same substance, the “Internalization % TOP” value on human GLP1-R came to 75.3%.
On to “H-Y[Aib]QGTFTSDFSK[αMeL]LDKK([AEEA-γGlu-C20 diacid])AQ[Aib]AFIEYLLAGGPSSGEPPPGEG-NH2 [Example 31]”, for which the concentration giving a half-maximal response (EC50) at hGIPR [1] (setting [5]) is 0.249 nM; on hGIPR [2] (read-out: cAMP Rel EC50, hGIPR), 63.6 nM; at human GcgR (read-out: cAMP Rel EC50, hGcgR), 1750 nM; at hGLP-1R [3] (setting [6]) it was 737 nM; at hGLP-1R [4] (setting [7]), 2.16 nM; on hGcgR (setting [8]) it was 8.42 nM. In addition, the EC50 at human GLP1-R (setting [9]) was 91.9 nM. Also, the “Internalization % TOP” value on human GLP1-R is 67.4%.

For the origin of these results see patent publication US20240270821A1, “GIP/GLP1/GCG TRI-RECEPTOR AGONISTS AND USES THEREOF” (priority 2023, published 2024).
